What all share (type): cell-based, human
The test system of assay [1] is A549 cells. Kind of assay: Cellular ROS by CM-H2DCFDA flow cytometry in A549 cells. Conditions: 10 or 20 mM DMM with 20 mM NAC or 20 mM GSH. The procedure: (§1) Intracellular ROS production was measured by staining with CM-H2DCFDA. CM-H2DCFDA is a cell-permeant indicator for ROS that is nonfluorescent until removal of the acetate groups by intracellular esterases and oxidation occurs within the cell. The procedure for measuring ROS was carried out as described in Trachootham et al., in Cancer Cell. 10: 241-252 (2006), with minor modifications. Briefly, A549 cells transduced with shRNA lentiviral particles or control vector were selected with puromycin for 2 weeks, and then incubated with 5 μM CM-H2DCF-DA for 3 hours, followed by flow cytometry using a FACSCalibur equipped with CellQuest Pro software. Superoxide radicals (O2^−) were measured separately using the MitoSOX™ reagent according to the manufacturer's protocol (Invitrogen). In brief, cells with or without ME2 knockdown were incubated with 5 μM MitoSOX™ reagent for 10 minutes at 37° C., then washed three times and observed under a fluorescence microscope using the Rhodamine filter and Axiovision software for capturing images (Zeiss, Germany).
In general terms: Flow cytometry measures light scatter and fluorescence of single cells or particles in a stream.

The subject of assay [2] is A549 cells. Kind of assay: Mitochondrial superoxide by MitoSOX Red in A549 cells. Conditions: DMM together with 20 mM NAC. The procedure:
as §1
We measured the ROS source using MitoSOX™ Red, a reagent that selectively targeted to the mitochondria.

Assay [3] deals with A549 cells. Kind of assay: Annexin-V apoptosis / cell death assay in A549 cells. Conditions: for DMM-induced cell death: DMM with NAC or GSH. The protocol: Apoptosis was measured by staining with the Nexin reagent using a Nexin kit and counting on the Guava PCA-96 system (Guava Technologies) as per the manufacture's protocol. Briefly, cells were harvested and re-suspended in 100 μl of 1× Nexin buffer, and then mixed with 100 μl of Annexin-V-PE, and Nexin 7-AAD. The cells were allowed to incubate for 20 minutes at room temperature and analyzed in the Guava flow cytometer.

Another assay relates to Akt and PDK1. Kind of assay: Western blotting of Akt/PDK1 phosphorylation and differentiation marker in A549 cells. Conditions: DMM in combination with NAC or GSH; for basal Akt activity in DMM-treated A549 cells: p-AKT473. The protocol: A549 cells with and without ME2 knockdown were lysed with RIPA buffer (50 mM Tris-HCl, pH 7.4, 150 mM NaCl, 1% NP-40, 0.1% SDS and 0.5% sodium deoxycholate), and equal amount of proteins were resolved by 4%-12% Bis-Tris gels (Invitrogen), as previously described in Ren et al., Proc. Natl Acad. Sci. USA 104: 10465-10469 (2007). Briefly, the proteins were transferred to a PVDF membrane, and membranes were blocked with BLOTTO (5% nonfat dry milk and 0.1% Tween 20 in PBS), and incubated with antisera generated against ME2, phospho-AKT380, phosphor-473, AKT1/2, phosphor-ERK1/2, ERK1, vimentin, GATA-1 or β-tubulin antibodies, respectively. Membranes were washed in PBS plus 0.1% Tween 20 and probed with anti-rabbit or anti-mouse HRP-conjugated secondary antibody (both at 1:10,000 dilution), and proteins were detected using the ECL Plus chemiluminescence detection reagent (Amersham Biosciences).
For orientation: A western blot detects proteins with antibodies after separation by electrophoresis.

In the case of `CC(=O)N[C@@H](CS)C(=O)O` [NAC, N-acetyl-cysteine], the “DMM-induced ROS production” value in the assay with A549 cells [1] was “inhibited”. The “superoxide production in DMM-treated cells” value in the assay on A549 cells [2] was “decreased levels of superoxide production”. The DMM-induced cell death entry with A549 cells [3] is given as “almost completely inhibited”. For the same molecule, the “cell death induced by ME2 knockdown, rescue by antioxidant” value in the assay with A549 cells [3] (ME2 depleted cells) is recorded as “failed to rescue”. Besides, in the assay with Akt and PDK1, the DMM-induced differentiation result is “reversed the DMM-induced differentiation” and the “basal Akt activity in DMM-treated A549 cells” value is on record as “rescued basal Akt activity”.

As to `N[C@@H](CCC(=O)N[C@@H](CS)C(=O)NCC(=O)O)C(=O)O` [GSH, reduced glutathione], in the assay on A549 cells [1], the “DMM-induced ROS production” value is “inhibited”. Moreover, in the assay with A549 cells [3], the DMM-induced cell death entry is on record as “almost completely inhibited”. Besides, in the assay with Akt and PDK1, the DMM-induced differentiation result is listed as “reversed the DMM-induced differentiation” and the “basal Akt activity in DMM-treated A549 cells” value is reported as “rescued basal Akt activity”.

(Values after US9931313B2, “Methods of treating proliferative disorders with malate or derivatives thereof” (Beth Israel Deaconess Medical Center, Inc., priority 2012, dated 2018).)
